Experimental findings from patent US8178552B2, “7-Azaindole derivatives and their use in the inhibition of c-Jun N-terminal kinase” (Eisai R&D Management Co., Ltd., priority 2008, dated 2012) are described below.

One may read the IC50 as the concentration that inhibits the measured activity by half.

Sequence of JNK3 (P53779 whole entry, species assumed): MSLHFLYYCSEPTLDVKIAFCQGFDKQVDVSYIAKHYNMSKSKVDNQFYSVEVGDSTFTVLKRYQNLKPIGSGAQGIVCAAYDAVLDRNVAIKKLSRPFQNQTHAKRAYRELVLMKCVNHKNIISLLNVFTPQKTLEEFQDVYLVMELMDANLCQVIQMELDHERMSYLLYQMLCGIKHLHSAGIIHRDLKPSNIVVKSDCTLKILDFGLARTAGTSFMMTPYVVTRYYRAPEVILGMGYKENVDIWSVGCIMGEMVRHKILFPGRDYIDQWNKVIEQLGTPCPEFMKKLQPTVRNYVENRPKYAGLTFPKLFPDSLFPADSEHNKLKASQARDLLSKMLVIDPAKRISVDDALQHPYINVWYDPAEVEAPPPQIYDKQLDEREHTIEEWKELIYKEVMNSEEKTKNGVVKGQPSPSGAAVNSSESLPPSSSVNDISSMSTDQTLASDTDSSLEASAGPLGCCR

The experiment deals with JNK3 (Homo sapiens, UniProt P53779). Description: JNK3 SPA assay. The format is biochemical. Particulars: 3.33 μM ATP, GST-c-Jun substrate; read-out: IC50 against JNK3. As for the experimental part:
JNK1, JNK2, JNK3—SPA Assay
JNK1, JNK2, JNK3—SPA Assay • 1. Compound is dissolved in DMSO to a convenient concentration and this is diluted in 10% DMSO to a five times concentrate of the desired starting concentration (frequently 1:100). • 2. 10 μl of 500 mM EDTA is added to alternative wells of the Opti-plate row, which will receive kinase reaction plus DMSO. This creates the negative control. • 3. For the JNK2 and JNK3 assay, compounds are prepared in six 2-fold dilutions with water and each concentration is tested in duplicate. For the JNK1 assay compounds are prepared in four 5-fold dilutions with water which are tested in triplicate. Controls are treated identically. • 4. 20 μl per well of each compound concentration is transferred to an Opti-plate, in duplicate. • 5. 30 μl (JNK2/3 SPA) or 50 μl (JNK1 SPA) of substrate solution (25 mM HEPES pH 7.5, 10 mM magnesium acetate with 3.33 μM ATP (JNK2/3) or 2 μM ATP (JNK1), approximately 7.5 kBq [γ-^33P] ATP, GST-c-Jun, in water) is added to each well. • 6. 50 μl (JNK2/3 SPA) or 30 μl (JNK1 SPA) of kinase solution (JNK in 25 mM HEPES pH 7.5, 10 mM Mg Acetate) is added to each well.
• 7. The plate is incubated for 30 minutes at room temperature. • 8. 100 μl of bead/stop solution is added to each well (5 mg/ml glutathione-PVT-SPA beads, 40 mM ATP in PBS). • 9. Plates are sealed and incubated for 30 minutes at room temperature, centrifuged for 10 minutes at 2500 g and counted. • 10. The IC50 values are calculated as the concentration of the compound being tested at which the phosphorylation of c-Jun is decreased to 50% of the control value.
With `Cn1cc(-c2c[nH]c3ncc(C4CCC(C(C)(C)C)CC4)cc23)cn1` (mixture of isomers) [Compound I-4, 5-(4-tert-butylcyclohexyl)-3-(1-methyl-1H-pyrazol-4-yl)-1H-pyrrolo[2,3-b]pyridine], the IC50 was determined as 123 nM.
The same measure for `CCC1CCC(c2cnc3[nH]cc(-c4cnn(C)c4)c3c2)CC1` (mixture of isomers) [Compound I-22, 5-(4-ethylcyclohexyl)-3-(1-methyl-1H-pyrazol-4-yl)-1H-pyrrolo[2,3-b]pyridine]: 25 nM.
Take `CC1CCCC(c2cnc3[nH]cc(-c4cnn(C)c4)c3c2)C1` (mixture of isomers) [Compound I-32, 3-(1-methyl-1H-pyrazol-4-yl)-5-(3-methylcyclohexyl)-1H-pyrrolo[2,3-b]pyridine]: the IC50 is 79 nM.
The same measure for `CC1CCCCC1c1cnc2[nH]cc(-c3cnn(C)c3)c2c1` (mixture of isomers) [Compound I-33, 3-(1-methyl-1H-pyrazol-4-yl)-5-(2-methylcyclohexyl)-1H-pyrrolo[2,3-b]pyridine]: 110 nM.
Regarding `Cn1cc(-c2c[nH]c3ncc(C4CCC(c5ccccc5)CC4)cc23)cn1` (mixture of isomers) [Compound I-35, 3-(1-methyl-1H-pyrazol-4-yl)-5-(4-phenylcyclohexyl)-1H-pyrrolo[2,3-b]pyridine], the IC50 worked out at 91 nM.
To `CC1CC(c2cnc3[nH]cc(-c4cnn(C)c4)c3c2)CC(C)(C)C1` (mixture of isomers) [Compound I-36, 3-(1-methyl-1H-pyrazol-4-yl)-5-(3,3,5-trimethylcyclohexyl)-1H-pyrrolo[2,3-b]pyridine] belongs 257 nM.
Turning to `CN(C)C1CCC(c2cnc3[nH]cc(-c4cnn(CCN5CCOCC5)c4)c3c2)CC1` (mixture of isomers) [Compound I-56, N,N-dimethyl-4-(3-(1-(2-morpholinoethyl)-1H-pyrazol-4-yl)-1H-pyrrolo[2,3-b]pyridin-5-yl)cyclohexanamine], the IC50 is 71 nM.
To `Cn1cc(-c2c[nH]c3ncc(C4CCC(CN5CCOCC5)CC4)cc23)cn1` (mixture of isomers) [Compound I-73, 3-(1-Methyl-1H-pyrazol-4-yl)-5-(4-morpholin-4-ylmethyl-cyclohexyl)-1H-pyrrolo[2,3-b]pyridine] belongs 74 nM; to `CCN(CCO)C1CCC(c2cnc3[nH]cc(-c4cnn(C)c4)c3c2)CC1` (mixture of isomers) [Compound I-131, 2-(ethyl(4-(3-(1-methyl-1H-pyrazol-4-yl)-1H-pyrrolo[2,3-b]pyridin-5-yl)cyclohexyl)amino)ethanol], 251 nM; to `CCN(C(C)C)C1CCC(c2cnc3[nH]cc(-c4cnn(C)c4)c3c2)CC1` (mixture of isomers) [Compound I-133, N-ethyl-N-isopropyl-4-(3-(1-methyl-1H-pyrazol-4-yl)-1H-pyrrolo[2,3-b]pyridin-5-yl)cyclohexanamine], 468 nM.
Regarding `Cn1cc(-c2c[nH]c3ncc(C4=C[C@H]5O[C@@H]4CC5C(N)=O)cc23)cn1` (mixture of isomers) [Compound I-156, (1R,4R)-5-(3-(1-methyl-1H-pyrazol-4-yl)-1H-pyrrolo[2,3-b]pyridin-5-yl)-7-oxabicyclo[2.2.1]hept-5-ene-2-carboxamide], the IC50 came out at 1410 nM.
`CN[C@@H]1C[C@H]2C=C(c3cnc4[nH]cc(-c5cnn(C)c5)c4c3)C[C@H](C2)C1` (relative stereo) [Compound I-151, trans N-methyl-7-(3-(1-methyl-1H-pyrazol-4-yl)-1H-pyrrolo[2,3-b]pyridin-5-yl)bicyclo[3.3.1]non-6-en-3-amine]: the IC50 amounted to 347 nM.
Consider `CC1CC=C(c2cnc3[nH]cc(-c4cnn(C)c4)c3c2)CC1` (centres unmarked) [Compound I-1, 3-(1-methyl-1H-pyrazol-4-yl)-5-(4-methylcyclohex-1-enyl)-1H-pyrrolo[2,3-b]pyridine], for which the IC50 came to 18 nM.
To `Cn1cc(-c2c[nH]c3ncc(C4=CCC(C(C)(C)C)CC4)cc23)cn1` (centres unmarked) [Compound I-2, 5-(4-tert-butylcyclohex-1-enyl)-3-(1-methyl-1H-pyrazol-4-yl)-1H-pyrrolo[2,3-b]pyridine] belongs 199 nM; to `FC(F)n1cc(-c2c[nH]c3ncc(C4=CCC(N5CCOCC5)CC4)cc23)cn1` (centres unmarked) [Compound I-5, 3-(1-Difluoromethyl-1H-pyrazol-4-yl)-5-(4-morpholin-4-yl-cyclohex-1-enyl)-1H-pyrrolo[2,3-b]pyridine], 339 nM; to `CCC1CC=C(c2cnc3[nH]cc(-c4cnn(C)c4)c3c2)CC1` (centres unmarked) [Compound I-8, 5-(4-ethylcyclohex-1-enyl)-3-(1-methyl-1H-pyrazol-4-yl)-1H-pyrrolo[2,3-b]pyridine], 16 nM.
For `CN(C)C1CCC(c2cnc3[nH]cc(-c4cnn(C)c4)c3c2)CC1` (centres unmarked) [Compound I-9, N,N-dimethyl-4-(3-(1-methyl-1H-pyrazol-4-yl)-1H-pyrrolo[2,3-b]pyridin-5-yl)cyclohexanamine], the IC50 turned out to be 40 nM.
To `Cn1cc(-c2c[nH]c3ncc(C4CCCC4)cc23)cn1` [Compound I-11, 5-cyclopentyl-3-(1-methyl-1H-pyrazol-4-yl)-1H-pyrrolo[2,3-b]pyridine] belongs 132 nM.
The same measure for `Cn1cc(-c2c[nH]c3ncc(C4=CCCCC4)cc23)cn1` [Compound I-12, 5-cyclohexenyl-3-(1-methyl-1H-pyrazol-4-yl)-1H-pyrrolo[2,3-b]pyridine]: 110 nM; for `Cn1cc(-c2c[nH]c3ncc(C4=CCCCCC4)cc23)cn1` [Compound I-13, (E)-5-cycloheptenyl-3-(1-methyl-1H-pyrazol-4-yl)-1H-pyrrolo[2,3-b]pyridine]: 126 nM; for `Cn1cc(-c2c[nH]c3ncc(C4=CCC5(CC4)OCCO5)cc23)cn1` [Compound I-14, 5-(1,4-Dioxa-spiro[4.5]dec-7-en-8-yl)-3-(1-methyl-1H-pyrazol-4-yl)-1H-pyrrolo[2,3-b]pyridine]: 224 nM.
On to `Cn1cc(-c2c[nH]c3ncc(C4=CCC(C)(C)CC4)cc23)cn1` [Compound I-15, 5-(4,4-dimethylcyclohex-1-enyl)-3-(1-methyl-1H-pyrazol-4-yl)-1H-pyrrolo[2,3-b]pyridine], for which the IC50 is 275 nM.
As for `Cn1cc(-c2c[nH]c3ncc(C4CCCCCC4)cc23)cn1` [Compound I-17, 5-cycloheptyl-3-(1-methyl-1H-pyrazol-4-yl)-1H-pyrrolo[2,3-b]pyridine], the IC50 came out at 162 nM.
`Cn1cc(-c2c[nH]c3ncc(C4CCC(C)(C)CC4)cc23)cn1` [Compound I-18, 5-(4,4-dimethylcyclohexyl)-3-(1-methyl-1H-pyrazol-4-yl)-1H-pyrrolo[2,3-b]pyridine]: the IC50 is 288 nM.
The same measure for `Cn1cc(-c2c[nH]c3ncc(C4CCC(=O)CC4)cc23)cn1` [Compound I-20, 4-[3-(1-Methyl-1H-pyrazol-4-yl)-1H-pyrrolo[2,3-b]pyridin-5-yl]-cyclohexanone]: 229 nM.
To `Cn1cc(-c2c[nH]c3ncc(C4=CCC(C)(C)C=C4)cc23)cn1` [Compound I-21, 5-(4,4-dimethylcyclohexa-1,5-dienyl)-3-(1-methyl-1H-pyrazol-4-yl)-1H-pyrrolo[2,3-b]pyridine] belongs 49 nM; to `Cn1cc(-c2c[nH]c3ncc(C4=CCC(c5ccccc5)CC4)cc23)cn1` (centres unmarked) [Compound I-27, 3-(1-methyl-1H-pyrazol-4-yl)-5-(4-phenylcyclohex-1-enyl)-1H-pyrrolo[2,3-b]pyridine], 155 nM.
The same measure for `Cn1cc(-c2c[nH]c3ncc(C4=CC(C)(C)CC(C)(C)C4)cc23)cn1` [Compound I-28, 3-(1-methyl-1H-pyrazol-4-yl)-5-(3,3,5,5-tetramethylcyclohex-1-enyl)-1H-pyrrolo[2,3-b]pyridine]: 5500 nM; for `COC1=C(c2cnc3[nH]cc(-c4cnn(C)c4)c3c2)CCCC1` [Compound I-31, 5-(2-Methoxy-cyclohex-1-enyl)-3-(1-methyl-1H-pyrazol-4-yl)-1H-pyrrolo[2,3-b]pyridine]: 480 nM; for `Cn1cc(-c2c[nH]c3ncc(C4CC(C)(C)CC(C)(C)C4)cc23)cn1` [Compound I-34, 3-(1-methyl-1H-pyrazol-4-yl)-5-(3,3,5,5-tetramethylcyclohexyl)-1H-pyrrolo[2,3-b]pyridine]: 2140 nM.
Regarding `CN1CCCN([C@H]2CC[C@@H](c3cnc4[nH]cc(-c5cnn(C)c5)c4c3)CC2)CC1` [Compound I-38, 5-((1s,4s)-4-(4-methyl-1,4-diazepan-1-yl)cyclohexyl)-3-(1-methyl-1H-pyrazol-4-yl)-1H-pyrrolo[2,3-b]pyridine], the IC50 stood at 98 nM.
The same measure for `Cn1cc(-c2c[nH]c3ncc(C4CCC(N5CCC5)CC4)cc23)cn1` (centres unmarked) [Compound I-41, 5-(4-(azetidin-1-yl)cyclohexyl)-3-(1-methyl-1H-pyrazol-4-yl)-1H-pyrrolo[2,3-b]pyridine]: 103 nM.
